Experimental data: US8216607B2, “Combination of ceramide and gemcitabine for inducing cell death and uses thereof in treating cancer” (priority 2008, dated 2012)
Where two headings read alike, the source gives them in different places.

How the values were obtained:
[1] = tested on: L3.6 human pancreatic adeno-carcinoma
Protocol: Pancreatic adenocarcinoma (PA), the fifth most common cause of cancer death in the United States is commonly metastatic and unresectable and is poorly responsive to therapy. […] The in vitro cytotoxicity effect of gemcitabine+/−C6 ceramide versus L3.6 pancreatic cancer cell line were measured using MTT assay. In vivo experiments were performed using SCID/Beige/Taconic male mice, 22-25 g, 6-8 weeks old (Taconic Laboratory, Germantown, N.Y., USA). Mice were inoculated s.c. with 2×106L3.6 PA cells. Four days later mice developed primary tumors and chemotherapy was started. Mice were treated 3 times/week for 4 weeks with i.p. injections of gemcitabine (5.0-10.0-15.0 mg/kg) and C6 ceramide (10.0 mg/kg) or combinations of these drugs. Body weight (BW) and diameters of tumors (TD) were measured every week. Diameters of tumors were used to count the volumes of primary tumors: TV. We also studied percent survival and mean survival time (MST). In these experiments we used the new test: mean rate tumor development (MRTD) which reflects the speed of tumor development and was measured by the formula: MTV/MST.
In vivo experiments utilized SCID/Beige/Taconic male mice inoculated S.C. with 2×106 L3.6 pancreatic cells which were treated 4 days post tumor implant with thrice weekly (3×/wk) intraperitoneal (IP) injections of paclitaxel (P) 3.0 mg/kg, oxaliplatin (OX) 2.5 mg/kg, cisplatin (CP) 2.5 mg/kg, gemcitabine (Gem) 15 mg/kg with or without ceramide 10 mg/kg. Chemotherapy dose levels were based on standardized clinical dosing as modified from in vitro data. […] Maximum tumor volume, tumor weight, body weight and survival were recorded. […] Separate histopathology studies recorded short term effects on tumor necrosis, mitotic index and caspase index.

[2] = tested on: L3.6 pancreatic cancer cell line
[3] = dose column 10 mg/kg (gemcitabine or ceramide alone; ceramide 10 mg/kg in combination)

SMILES | anti-tumor regression and survival induced by Oxaliplatin and Gemcitabine ([1]; combination therapy) | Tumor Size (cc) ([1]; dose column 10 mg/kg) | Mean Survival Time [1, 3] | anti tumor effects of co-administered drugs ([1]; with Paclitaxel, Doxorubicin, Cisplatin, Oxaliplatin, Gemcitabine) | effect on cytotoxicity induced by low dose cisplatin and oxaliplatin [2] | % Survival @ 3 Weeks ([1]; 3 weeks) | % Survival @ 6 Weeks ([1]; 6 weeks) | Tumor Size (cc) ([1]; dose column 5 mg/kg) | Mean Survival Time ([1]; dose column 5 mg/kg (gemcitabine; ceramide 10 mg/kg in combination)) | Tumor Size (cc) ([1]; dose column 15 mg/kg) | Mean Survival Time ([1]; dose column 15 mg/kg (gemcitabine; ceramide 10 mg/kg in combination)) | Mean Final Tumor Volume ([1]; i.p. 3x/wk from day 4, paclitaxel 3.0, oxaliplatin 2.5, cisplatin 2.5, gemcitabine 15, ceramide 10 mg/kg, observed 6 weeks, in cm³) | Mean Survival Time ([1]; i.p. 3x/wk, paclitaxel 3.0, oxaliplatin 2.5, cisplatin 2.5, gemcitabine 15, ceramide 10 mg/kg) | Mean Body Weight (g) (Time of Death or Sacrifice) ([1]; time of death or sacrifice)
CCCCCCCCCCCCC/C=C/[C@@H](O)[C@H](CO)NC(=O)CCCCC [Ceramide, N-hexanoyl-D-sphingosine] | significantly enhanced | 0.253 cc | 27.8 ± 10.2 days | augmented the anti tumor effects | parallel effects |  |  |  |  |  |  |  |  | 
Nc1ccn([C@@H]2O[C@H](CO)[C@@H](O)C2(F)F)c(=O)n1 [Gemcitabine] |  | 0.376 cc | 27.8 ± 10.2 days |  |  | 40% | 0% | 0.412 cc | 19.6 ± 3.6 days | 0.439 cc | 23.2 ± 5.9 days | 1.10 +/−^ | 22.8 ± 4.5 days | 15.6 g
